The structures appear in SMILES notation. pIC50: −log10 of the molar value.

For one series, the system named is IL-17F. Briefly: Cytokine assay: IL-17F production by human PBMC stimulated with PHA. It counts as cell-based. The following applies: Homo sapiens, PBMC, IC50 class, read-out: IL-17F Inhib. Summed up:
(§1)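 Human donor PBMC (1×10^5 cells/well) were activated with 2 μg/ml PHA and exposed to compounds for 48 h. Supernatant IL-17A, IL-17F and IFN-γ were measured by Luminex or ELISA. Screening used 10, 1, 0.1 and 0.01 μM; IC50 values came from semilogarithmic titrations.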

In another series the test system is IL-17A. Nature of the series: Cytokine assay: IL-17A production by human PBMC stimulated with PHA. In kind it is cell-based. The following applies: Homo sapiens, PBMC, IC50 class, read-out: IL-17A Inhib. Summed up: as §1
The next series deals with INF-γ. Briefly: Cytokine assay: INF-γ production by human PBMC stimulated with PHA. In kind it is cell-based. The following applies: Homo sapiens, PBMC, IC50 class, read-out: IFN-gamma Inhib. The method in brief:
as §1

A short description of series [1]: Microsomal stability: incubation with human liver microsomes, residual parent compound by HPLC-MS/MS. It counts as in vitro ADME. The following applies: pH 7.4; human liver microsomes, 1 μM compound, 0.5 mg/ml HLM, 37° C., up to 60 min; read-out: t1/2 hLM. The procedure: Metabolic stability of compounds of the present invention was determined by incubation with human liver microsomes and subsequent determination of residual amount of the respective compound (“parent compound”) by HPLC-MS/MS.
In order to achieve this, in a final reaction volume of 1000 μl, each compound was incubated at a final concentration of 1 μM with 0.5 mg/ml human liver microsomes (HLM Pool 50 Donors, 20 mg/ml, BD Gentest, #452156, LotNr 88114) in 0.1 M Potassium phosphate buffer at pH 7.4, with a cofactor in form of a NADPH regenerating system (Promega, #V9510) according to the manufacturers' specifications. The final DMSO concentration in each sample was 0.4%. The incubation was performed at 37° C. under shaking conditions (Thermomixer, 1400 rpm) for different time intervals up to 60 min. To stop the reaction, for each time point 200 μl of the reaction were taken out and 200 μl ice-cold acetonitrile was added. Then, the samples were centrifuged (4° C., 14000*g for 15 min). The supernatant was analyzed for residual parent compound concentration and scanned for metabolites using HPLC-MS/MS. By using optimized MS methods for each compound, the peak area under curve for the compound specific signal is determined. The change of the peak areas over the assay time of 60 min resemble the remaining parent compound in % of T0. By these points, a balancing line was set. The half-time, as well as the clearance, can then be calculated on the basis of the slope.
In general terms: Liver microsomes are a subcellular fraction often used to study metabolism.

As for `COc1cccc(-c2noc(-c3cnn(CCC(C)(C)O)c3C)c2-c2ncccn2)c1Cl` [Example 124, 4-{4-[3-(2-chloro-3-methoxyphenyl)-4-(pyrimidin-2-yl)-1,2-oxazol-5-yl]-5-methyl-1H-pyrazol-1-yl}-2-methylbutan-2-ol], the pIC50 in the series with IL-17F, with IL-17A and in the series with INF-γ was more than 7.30 throughout. The half-life at 1 μM in series [1] is more than 100 min.

In the case of `COc1ccc(Cl)c(-c2noc(-c3cnn(CCC(C)(C)O)c3C)c2-c2ncccn2)c1Cl` [Example 125, 4-{4-[3-(2,6-dichloro-3-methoxyphenyl)-4-(pyrimidin-2-yl)-1,2-oxazol-5-yl]-5-methyl-1H-pyrazol-1-yl}-2-methylbutan-2-ol], the pIC50 in the series on IL-17F was more than 7.30; in the series on IL-17A, 6.30 to 7.30; in the series on INF-γ it was more than 7.30. Besides, the half-life at 1 μM in series [1] was more than 100 min.

As for `Cc1c(-c2onc(-c3c(F)cccc3Cl)c2-c2ncccn2)cnn1CCC(C)(C)O` [Example 127, 4-{4-[3-(2-chloro-6-fluorophenyl)-4-(pyrimidin-2-yl)-1,2-oxazol-5-yl]-5-methyl-1H-pyrazol-1-yl}-2-methylbutan-2-ol], the figures for the pIC50 in the series with IL-17F, in the series on IL-17A and in the series with INF-γ were 6.30 to 7.30, 6.30 to 7.30 and more than 7.30, respectively. Further, the half-life at 1 μM in series [1] is more than 100 min.

On to `CC(C)(O)CCn1ncc(-c2onc(-c3cccc(OCCN4CCOCC4)c3Cl)c2-c2ncccn2)c1C(F)(F)F` [Example 133, 4-[4-(3-{2-chloro-3-[2-(morpholin-4-yl)ethoxy]phenyl}-4-(pyrimidin-2-yl)-1,2-oxazol-5-yl)-5-(trifluoromethyl)-1H-pyrazol-1-yl]-2-methylbutan-2-ol], for which the pIC50 in the series on IL-17F, with IL-17A and in the series on INF-γ was more than 7.30 throughout. The half-life at 1 μM in series [1] was in the range of 2 to 9.99 min.

Turning to `CN(C)CCOc1cccc(-c2noc(-c3cnn(CCC(C)(C)O)c3C(F)(F)F)c2-c2ncccn2)c1Cl` [Example 134, 4-[4-(3-{2-chloro-3-[2-(dimethylamino)ethoxy]phenyl}-4-(pyrimidin-2-yl)-1,2-oxazol-5-yl)-5-(trifluoromethyl)-1H-pyrazol-1-yl]-2-methylbutan-2-ol], the pIC50 with IL-17F was 6.30 to 7.30; with IL-17A it was more than 7.30; with INF-γ it was 6.30 to 7.30. Besides, in series [1], the half-life at 1 μM was more than 100 min.

Take `CC(C)(O)CCn1ncc(-c2onc(-c3cccc(OCCN4CCCC4)c3Cl)c2-c2ncccn2)c1C(F)(F)F` [Example 135, 4-[4-(3-{2-chloro-3-[2-(pyrrolidin-1-yl)ethoxy]phenyl}-4-(pyrimidin-2-yl)-1,2-oxazol-5-yl)-5-(trifluoromethyl)-1H-pyrazol-1-yl]-2-methylbutan-2-ol]: the values for the pIC50 in the series on IL-17F, in the series with IL-17A and in the series with INF-γ were 6.30 to 7.30, 6.30 to 7.30 and more than 7.30, respectively. Besides, the half-life at 1 μM in series [1] is 40 to 100 min.

On to `CCN(CC)CCOc1cccc(-c2noc(-c3cnn(CCC(C)(C)O)c3C(F)(F)F)c2-c2ncccn2)c1Cl` [Example 137, 4-[4-(3-{2-chloro-3-[2-(diethylamino)ethoxy]phenyl}-4-(pyrimidin-2-yl)-1,2-oxazol-5-yl)-5-(trifluoromethyl)-1H-pyrazol-1-yl]-2-methylbutan-2-ol], for which the pIC50 with IL-17F, in the series on IL-17A and in the series on INF-γ was 6.30 to 7.30 each time. Further, the half-life at 1 μM in series [1] was in the range of 10 to 40 min.

For the compound `CC(C)(O)CCn1ncc(-c2onc(-c3cccc(OCCN4CCS(=O)(=O)CC4)c3Cl)c2-c2ncccn2)c1C(F)(F)F` [Example 138, 4-[2-(2-chloro-3-{5-[1-(3-hydroxy-3-methylbutyl)-5-(trifluoromethyl)-1H-pyrazol-4-yl]-4-(pyrimidin-2-yl)-1,2-oxazol-3-yl}phenoxy)ethyl]-thiomorpholine-1,1-dione], the values for the pIC50 with IL-17F, in the series on IL-17A and with INF-γ were more than 7.30, more than 7.30 and 6.30 to 7.30, respectively. Besides, in series [1], the half-life at 1 μM was 2 to 9.99 min.

Take `CC(C)(O)CCn1ncc(-c2onc(-c3cccc(OCCN4CC5(COC5)C4)c3Cl)c2-c2ncccn2)c1C(F)(F)F` [Example 139, 4-(4-{3-[2-chloro-3-(2-{2-oxa-6-azaspiro[3.3]heptan-6-yl}ethoxy)phenyl]-4-(pyrimidin-2-yl)-1,2-oxazol-5-yl}-5-(trifluoromethyl)-1H-pyrazol-1-yl)-2-methylbutan-2-ol]: the pIC50 with IL-17F was more than 7.30; in the series with IL-17A it was more than 7.30; with INF-γ, 6.30 to 7.30. Also, the half-life at 1 μM in series [1] lay within 10 to 40 min.

Turning to `CC(C)(O)CCn1ncc(-c2onc(-c3cccc(OCCCN4CCS(=O)(=O)CC4)c3Cl)c2-c2ncccn2)c1C(F)(F)F` [Example 141, 4-[3-(2-chloro-3-{5-[1-(3-hydroxy-3-methylbutyl)-5-(trifluoromethyl)-1H-pyrazol-4-yl]-4-(pyrimidin-2-yl)-1,2-oxazol-3-yl}phenoxy)propyl]-thiomorpholine-1,1-dione], the pIC50 in the series on IL-17F, in the series with IL-17A and in the series with INF-γ was more than 7.30 throughout. Besides, in series [1], the half-life at 1 μM is 2 to 9.99 min.

On to `Cc1c(-c2onc(-c3cccc(OCCN(C)C)c3Cl)c2-c2ncccn2)cnn1CCC(C)(C)O` [Example 145, 4-[4-(3-{2-chloro-3-[2-(dimethylamino)ethoxy]phenyl}-4-(pyrimidin-2-yl)-1,2-oxazol-5-yl)-5-methyl-1H-pyrazol-1-yl]-2-methylbutan-2-ol], for which the pIC50 in the series on IL-17F was 5.30 to 6.30; in the series with IL-17A it was 5.30 to 6.30; with INF-γ, 6.30 to 7.30. In addition, the half-life at 1 μM in series [1] was more than 100 min.

With `Cc1c(-c2onc(-c3cccc(OCCN4CCCC4)c3Cl)c2-c2ncccn2)cnn1CCC(C)(C)O` [Example 146, 4-[4-(3-{2-chloro-3-[2-(pyrrolidin-1-yl)ethoxy]phenyl}-4-(pyrimidin-2-yl)-1,2-oxazol-5-yl)-5-methyl-1H-pyrazol-1-yl]-2-methylbutan-2-ol], the pIC50 was 5.30 to 6.30 in the series on IL-17F, 6.30 to 7.30 with IL-17A and 6.30 to 7.30 in the series on INF-γ. Moreover, in series [1], the half-life at 1 μM was more than 100 min.

In the case of `COC(=O)c1c(-c2cccc(OCCN3CCOCC3)c2Cl)noc1-c1cnn(C[C@H](C)O)c1C(F)(F)F` [Example 148, methyl 3-{2-chloro-3-[2-(morpholin-4-yl)ethoxy]phenyl}-5-{1-[(2S)-2-hydroxypropyl]-5-(trifluoromethyl)-1H-pyrazol-4-yl}-1,2-oxazole-4-carboxylate], the pIC50 in the series on IL-17F, in the series with IL-17A and with INF-γ was more than 7.30 in each case. The half-life at 1 μM in series [1] fell in the range of 2 to 9.99 min.

As to `COCc1c(-c2cccc(OCCN3CCOCC3)c2Cl)noc1-c1cnn([C@H]2C[C@@](C)(O)C2)c1C(F)(F)F` [Example 150, 3-[4-(3-{2-chloro-3-[2-(morpholin-4-yl)ethoxy]phenyl}-4-(methoxymethyl)-1,2-oxazol-5-yl)-5-(trifluoromethyl)-1H-pyrazol-1-yl]-1-methylcyclobutan-1-ol], the pIC50 in the series with IL-17F, in the series on IL-17A and in the series on INF-γ was more than 7.30 throughout. For the same compound, the half-life at 1 μM in series [1] lay in the range of 2 to 9.99 min.

For `COCc1c(-c2cccc(OCCN(C)C)c2Cl)noc1-c1cnn([C@H]2C[C@@](C)(O)C2)c1C(F)(F)F` [Example 151, 3-[4-(3-{2-chloro-3-[2-(dimethylamino)ethoxy]phenyl}-4-(methoxymethyl)-1,2-oxazol-5-yl)-5-(trifluoromethyl)-1H-pyrazol-1-yl]-1-methylcyclobutan-1-ol], the pIC50 with IL-17F, in the series with IL-17A and in the series on INF-γ was 6.30 to 7.30 throughout. For the same compound, the half-life at 1 μM in series [1] is more than 100 min.

On to `COCc1c(-c2cccc(OCCN3CCOCC3)c2Cl)noc1-c1cnn([C@H]2C[C@](C)(O)C2)c1C(F)(F)F` [Example 152, 3-[4-(3-{2-chloro-3-[2-(morpholin-4-yl)ethoxy]phenyl}-4-(methoxymethyl)-1,2-oxazol-5-yl)-5-(trifluoromethyl)-1H-pyrazol-1-yl]-1-methylcyclobutan-1-ol], for which the pIC50 in the series on IL-17F, in the series with IL-17A and in the series on INF-γ was 6.30 to 7.30 each time. Besides, in series [1], the half-life at 1 μM was 2 to 9.99 min.

Turning to `COCc1c(-c2cccc(OCCN(C)C)c2Cl)noc1-c1cnn([C@H]2C[C@](C)(O)C2)c1C(F)(F)F` [Example 153, 3-[4-(3-{2-chloro-3-[2-(dimethylamino)ethoxy]phenyl}-4-(methoxymethyl)-1,2-oxazol-5-yl)-5-(trifluoromethyl)-1H-pyrazol-1-yl]-1-methylcyclobutan-1-ol], the pIC50 with IL-17F is 5.30 to 6.30; with IL-17A, not above 5.30; with INF-γ it was 5.30 to 6.30. In addition, the half-life at 1 μM in series [1] was more than 100 min.

Source of the values: patent publication US11292788B2, “IL-17 and IFN-gamma inhibition for the treatment of autoimmune diseases and chronic inflammation” (Immunic AG, priority 2017, dated 2022).
